Measurements taken from PMC3179492, “HIV Protease Inhibitors Act as Competitive Inhibitors of the Cytoplasmic Glucose Binding Site of GLUTs with Differing Affinities for GLUT1 and GLUT4” (PLoS ONE, 2011).
Several values for one entry are separate records, joined by “and”; a condition that tells them apart may be missing. Identical values can stand only once. Like-named read-outs stand apart in the source and are kept apart here.

What was measured:
[1] = biological target: insulin-stimulated rat adipocytes; details: read-out: Ki for inhibition of sugar uptake; cited from earlier work
GLUT4 [2] = biological target: T1, GLUT4 (Mus musculus, UniProt P14142); test: Kinetic (Scatchard) analysis of indinavir effect on ATB-BMPA labeling of GLUT4 in LDM; format: binding; parameters: LDM contains small intracellular vesicles of GLUT4 and GLUT1; endogenous in cells; host or cells: low-density microsome fraction of differentiated 3T3-L1 adipocytes; details: for Kd: Scatchard plot
T1 sequence (P14142 1-509): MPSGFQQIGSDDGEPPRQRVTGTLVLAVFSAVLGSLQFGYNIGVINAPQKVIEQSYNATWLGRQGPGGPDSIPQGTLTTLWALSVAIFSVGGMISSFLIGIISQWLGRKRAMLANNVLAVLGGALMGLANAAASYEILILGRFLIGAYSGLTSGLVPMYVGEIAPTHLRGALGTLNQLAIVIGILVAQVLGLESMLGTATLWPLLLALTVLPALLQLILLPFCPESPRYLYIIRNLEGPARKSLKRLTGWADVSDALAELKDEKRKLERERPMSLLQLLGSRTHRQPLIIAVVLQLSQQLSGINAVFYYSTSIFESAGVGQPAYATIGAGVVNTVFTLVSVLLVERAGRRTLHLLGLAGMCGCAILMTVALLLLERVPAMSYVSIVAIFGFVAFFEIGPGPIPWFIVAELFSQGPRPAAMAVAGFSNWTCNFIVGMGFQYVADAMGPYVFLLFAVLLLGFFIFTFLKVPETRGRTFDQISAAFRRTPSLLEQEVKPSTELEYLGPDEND
Method: ATB-BMPA (50, 100, 200, 300 µM final concentration) was then added for an additional 10 min (5 min at room temperature, 5 min at 4 °C). Samples (110 µl final volume) were UV irradiated as described above. After removal of excess label with a desalting spin column, GLUT4 protein was immunoprecipitated from Thesit-solubilized LDM using a GLUT4 C-terminal directed antibody. ATB-BMPA-bound GLUT4 was analyzed by immunoblot analysis using an IR Dye 800 CW fluorescent streptavidin (LI-COR) and quantified with an Odyssey Infrared Imaging System. Identical samples that were not UV irradiated were used to correct for non-specific binding. The free ATB-BMPA concentration was assumed to be equal to the total ATB-BMPA concentration since the label concentration far exceeded the GLUT4 concentration. The data was expressed as Scatchard plots, bound/free versus bound. The Bmax and Kd values were determined from the horizontal intercept and the negative […], respectively.

human erythrocytes = biological target: human erythrocytes; parameters: method as in PMID 2390055; details: read-out: Ki for inhibition of sugar uptake; cited from earlier work
3T3-L1 fibroblasts = test: 2-Deoxyglucose uptake in 3T3-L1 fibroblasts (express only GLUT1); format: cell-based; details: for Effect on 2-deoxyglucose uptake (GLUT1 transporter activity): 3T3-L1 fibroblasts
Method: 3T3-L1 fibroblasts were grown to confluency in Dulbecco's modified Eagle's medium (DMEM) supplemented with 10% calf serum. The uptake of [^3H]2-Deoxyglucose (50 µM) was measured in Krebs-Ringer phosphate buffer for 6 min at 37°C as previously described. HIV protease inhibitors were added 6 min prior to the start of the reaction. Non-specific uptake measured in the presence of 20 µM cytochalasin B (Sigma) was subtracted from the experimental values.

primary rat adipocytes [3] = test: 2-Deoxyglucose uptake in insulin-stimulated primary rat adipocytes (predominantly GLUT4); format: cell-based; details: for Effect on 2-deoxyglucose uptake (GLUT4 transporter activity): primary rat adipocytes
Method: Adipocytes from epididymal fat pads were prepared from male Wistar rats weighing 150 – 200 g (from Charles River Laboratories, Inc., Wilmington, MA) as previously described. Adipocytes were stimulated with 1 µM insulin for 30 min at 37°C prior to use. 2-Deoxyglucose uptakes were performed by adding 80 µl of the cell suspension to 80 µl of Krebs-Ringer bicarbonate Hepes buffer (KRB) (120 mM NaCl, 4 mM KH2PO4, 1 mM MgSO4, 1 mM CaCl2, 10 mM NaHCO3, 200 nM adenosine, 30 mM Hepes, pH 7.4) containing 3% bovine serum albumin. HIV protease inhibitors / vehicle were added 5 min prior to the initiation of the reaction. Uptakes were initiated with the addition of 20 µl of [^3H]2-deoxyglucose (final 2-deoxyglucose concentration 50 µM; 0.5 µCi/assay). After 1 min at 37 °C, reactions were quenched with cytochalasin B to a final concentration of 0.4 mM. The cells were separated by spinning the reaction through dinonylphthalate as previously described and the intracellular radioactivity was quantified by liquid scintillation counting. Non-specific uptake measured in the presence of 20 µM cytochalasin B (Sigma) was subtracted from the experimental values.

GLUT4 [4] = biological target: T1, GLUT4; test: ATB-BMPA photolabeling of low-density microsomes (LDM) from 3T3-L1 adipocytes, GLUT4; format: binding; parameters: LDM contains small intracellular vesicles of GLUT4 and GLUT1; endogenous in cells; host or cells: low-density microsome fraction of differentiated 3T3-L1 adipocytes; details: for IC50: LDM 200 µg, biotinylated ATB-BMPA 50 µM, mean ± S.E., n = 3, read-out: Half-maximal inhibition (IC50) of ATB-BMPA binding to GLUT4; for Selectivity GLUT4 vs GLUT1, inhibition of ATB-BMPA labeling: LDM of 3T3-L1 adipocytes
Method: (§1) 3T3-L1 fibroblasts were grown to confluency and 48 h later subjected to differentiation as previously described. 3T3-L1 adipocytes were used 10 – 14 days after differentiation. Six culture dishes (15 cm) of adipocytes were serum-starved overnight, washed 3 times with ice-cold HES buffer (50 mM Hepes, pH 7.4, 255 mM sucrose, and 1 mM EDTA) containing Roche complete protease inhibitors (Roche Applied Science, Mannheim, Germany), scraped into 5 ml of the same buffer, and then homogenized with either a ball-bearing homogenizer or with a Potter-Elvehjem tissue grinder and a PTFE pestle. The low-density microsome (LDM) fraction was obtained by differential centrifugation as described previously. LDM were resuspended in phosphate buffer (25 mM phosphate, pH 7.4, 100 mM NaCl, 5% glycerol) containing complete Roche protease inhibitors.
(§2) Inhibitors were added to LDM (200 µg protein unless otherwise stated) for 10 min at room temperature. Samples (final volume 110 µl) were then incubated for 10 min at room temperature in the dark with biotinylated ATB-BMPA (50 µM final concentration) and then placed on ice prior to UV irradiation. Reactions were transferred to a 24-well low protein retention culture dish (Costar, Corning, NY) and then irradiated at room temperature 5 cm from a Green Spot UV lamp for 1 min (30 sec of light, followed by 30 sec of darkness, followed by 30 sec of light).
(§3) 20 µl of BSA (1.5 mg/ml final concentration) was added to the UV irradiated samples in a siliconized eppendorph tube. Excess biotinylated ATB-BMPA label was removed using a 0.5 ml Zeba Spin Desalting Column (Pierce). Biotinylated proteins were isolated essentially as described previously. Membranes were solubilized for 30 min at 4°C with 2% Thesit detergent buffer containing protease inhibitors. After centrifugation at 16,000 x g for 10 min, the supernatants were incubated overnight at 4°C with 50 µl of high capacity Streptavidin Agarose resin (Pierce). Precipitates were washed 3 times with 1% Thesit detergent buffer, twice with 0.1% Thesit detergent buffer, and once with phosphate buffer. Biotinylated proteins were eluted at 95 – 100°C for 20 min in 60 µl of 2X Laemmli Sample Buffer containing 40 mM dithiothreitol. Half of the eluted proteins were subjected to SDS-PAGE and transferred to nitrocellulose. Immunoblot analysis was carried out using GLUT4 and GLUT1 specific antibodies and quantified using an Odyssey Infrared Imaging System (LI-COR Biosciences, Lincoln, NE).

GLUT1 = biological target: T2, GLUT1 (Mus musculus, UniProt P17809); test: ATB-BMPA photolabeling of low-density microsomes (LDM) from 3T3-L1 adipocytes, GLUT1; format: binding; details: for IC50: LDM 200 µg, biotinylated ATB-BMPA 50 µM, mean ± S.E., n = 3, read-out: Half-maximal inhibition (IC50) of ATB-BMPA binding to GLUT1
T2 construct: LDM contains small intracellular vesicles of GLUT4 and GLUT1; endogenous in cells; host or cells: low-density microsome fraction of differentiated 3T3-L1 adipocytes
T2 sequence (P17809 1-492): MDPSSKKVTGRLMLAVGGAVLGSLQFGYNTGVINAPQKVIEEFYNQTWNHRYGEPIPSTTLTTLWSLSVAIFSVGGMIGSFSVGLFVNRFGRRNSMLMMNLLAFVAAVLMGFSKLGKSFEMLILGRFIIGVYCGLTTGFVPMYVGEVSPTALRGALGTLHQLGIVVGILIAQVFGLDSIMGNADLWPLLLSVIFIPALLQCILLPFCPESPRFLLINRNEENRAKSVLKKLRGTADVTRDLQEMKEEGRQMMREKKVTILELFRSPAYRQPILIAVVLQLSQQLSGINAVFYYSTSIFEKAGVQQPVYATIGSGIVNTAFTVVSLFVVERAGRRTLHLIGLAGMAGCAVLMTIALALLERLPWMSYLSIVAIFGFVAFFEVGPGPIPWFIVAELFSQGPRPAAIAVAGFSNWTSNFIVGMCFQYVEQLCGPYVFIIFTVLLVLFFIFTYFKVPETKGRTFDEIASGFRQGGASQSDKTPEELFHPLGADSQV
Method: as §1, §2, §3

myotubes = test system: myotubes; parameters: method as in PMID 1401073; details: read-out: IC50 for inhibition of 2-deoxy-glucose uptake into myotubes; cited from earlier work
GLUT4 [5] = biological target: T1, GLUT4; details: Xenopus oocytes; read-out: Binding affinity (KI) for GLUT4 in the oocyte system; cited from earlier work
primary rat adipocytes [6] = details: read-out: KI from inhibition of zero trans glucose uptake; cited from earlier work
[7] = 10 µM PI (therapeutic concentration)

SMILES	Effect on ATB-BMPA labeling of GLUT4 (GLUT4 [4]; [7])	Effect on ATB-BMPA labeling of GLUT4 (GLUT4 [4]; 50 µM PI)	IC50 (GLUT4 [4])	Effect on ATB-BMPA labeling of GLUT1 (GLUT1; [7])	Effect on ATB-BMPA labeling of GLUT1 (GLUT1; 50 µM PI)	IC50 (GLUT1)	Effect on 2-deoxyglucose uptake (GLUT1 transporter activity) (3T3-L1 fibroblasts; 10 µM PI)	Effect on 2-deoxyglucose uptake (GLUT1 transporter activity) (3T3-L1 fibroblasts; 50 µM PI)	Effect on 2-deoxyglucose uptake (GLUT4 transporter activity) (primary rat adipocytes [3]; 10 µM PI)	Effect on 2-deoxyglucose uptake (GLUT4 transporter activity) (primary rat adipocytes [3]; 50 µM PI)	further results
O=C(CCCCC1SCC2NC(=O)NC21)NCCCCCC(=O)NCCOCCOCCOc1cc(C2(C(F)(F)F)N=N2)ccc1C(=O)NC(CO[C@H]1[C@H](O)[C@H](O)C(O)O[C@@H]1CO)CO[C@H]1[C@H](O)[C@H](O)C(O)O[C@@H]1CO (stereo partly drawn) [ATB-BMPA]	–	–	–	–	–	–	–	–	–	–	Ki [1]: ~350 µM; Kd (GLUT4 [2]; 0 µM indinavir, read-out: Kd of ATB-BMPA binding to GLUT4): 75 µM; Kd (GLUT4 [2]; 10 µM indinavir, read-out: Kd (apparent) of ATB-BMPA binding to GLUT4): 152 µM; Kd (GLUT4 [2]; 20 µM indinavir, read-out: Kd (apparent) of ATB-BMPA binding to GLUT4): 218 µM; Kd (GLUT4 [2]; 50 µM indinavir, read-out: Kd (apparent) of ATB-BMPA binding to GLUT4): 510 µM; Ki (human erythrocytes): ~350 µM
COC(=O)N[C@H](C(=O)N[C@@H](Cc1ccccc1)[C@@H](O)CN(Cc1ccc(-c2ccccn2)cc1)NC(=O)[C@@H](NC(=O)OC)C(C)(C)C)C(C)(C)C [Atazanavir, atazanavir]	no effect	affected	66 ± 3.3 µM	no effect	affected	59 ± 4.8 µM	no effect	affected	no effect	affected	Selectivity GLUT4 vs GLUT1, inhibition of glucose uptake (primary rat adipocytes [3]; primary rat adipocytes vs 3T3-L1 fibroblasts): non-specific GLUT inhibitor; Selectivity GLUT4 vs GLUT1, inhibition of ATB-BMPA labeling (GLUT4 [4]): non-specific GLUT inhibitor; Selectivity GLUT4 vs GLUT1, inhibition of ATB-BMPA labeling (GLUT4 [4]; listed as atazanavir): non-selective
C=C1[C@@H](C)[C@H]2[C@H](Cc3ccccc3)NC(=O)[C@]23OC(=O)/C=C/[C@H](O)CCC[C@@H](C)C/C=C/[C@H]3[C@@H]1O [CB, cytochalasin B]	–	–	0.44 ± 0.07 µM	–	–	0.35 µM and 0.36 µM	–	–	–	–	IC50 (myotubes): 0.4 µM
CCC[C@@]1(CCc2ccccc2)CC(O)=C([C@H](CC)c2cccc(NS(=O)(=O)c3ccc(C(F)(F)F)cn3)c2)C(=O)O1 [Tipranavir]	no effect	no effect	–	no effect	no effect	–	no effect	no effect	no effect	no effect	–

Further lines, with some results ahead:

Effect on ATB-BMPA labeling of GLUT4 (GLUT4 [4]; [7])	Effect on ATB-BMPA labeling of GLUT4 (GLUT4 [4]; 50 µM PI)	IC50 (GLUT4 [4])	Effect on ATB-BMPA labeling of GLUT1 (GLUT1; [7])	Effect on ATB-BMPA labeling of GLUT1 (GLUT1; 50 µM PI)	IC50 (GLUT1)	SMILES	Effect on 2-deoxyglucose uptake (GLUT1 transporter activity) (3T3-L1 fibroblasts; 10 µM PI)	Effect on 2-deoxyglucose uptake (GLUT1 transporter activity) (3T3-L1 fibroblasts; 50 µM PI)	Effect on 2-deoxyglucose uptake (GLUT4 transporter activity) (primary rat adipocytes [3]; 10 µM PI)	Effect on 2-deoxyglucose uptake (GLUT4 transporter activity) (primary rat adipocytes [3]; 50 µM PI)	further results
–	–	20.7 ± 3.9 µM	–	–	178 ± 43 µM	CC(C)(C)NC(=O)[C@@H]1CN(Cc2cccnc2)CCN1C[C@@H](O)C[C@@H](Cc1ccccc1)C(=O)N[C@H]1c2ccccc2C[C@H]1O [Indinavir, indinavir]	unaffected	affected but a lesser extent than GLUT4	reduced	affected	IC50 (3T3-L1 fibroblasts; Mus musculus, 3T3-L1, basal, 50 µM 2-deoxyglucose, read-out: IC50 for inhibition of 2-deoxyglucose uptake in 3T3-L1 fibroblasts): 241 µM; IC50 (primary rat adipocytes [3]; Rattus norvegicus, Adipocyte, insulin-stimulated, 50 µM 2-deoxyglucose, read-out: IC50 for inhibition of 2-deoxyglucose uptake in primary rat adipocytes): 11 µM; Ki (GLUT4 [5]): 50 µM; Ki (GLUT4 [2]; from Kd(apparent) = Kd (1 + [I]/KI), LDM 50 µg, read-out: KI, competitive inhibition of ATB-BMPA binding to the cytoplasmic glucose binding site of GLUT4): 8.2 µM; Ki (primary rat adipocytes [6]): 15 µM
–	affected	–	–	affected	–	CC(C)c1nc(CN(C)C(=O)N[C@H](C(=O)N[C@@H](Cc2ccccc2)C[C@H](O)[C@H](Cc2ccccc2)NC(=O)OCc2cncs2)C(C)C)cs1 [Ritonavir, ritonavir]	–	affected	–	affected	–
